Source: publication PMC5116089, “Sulfheme formation during homocysteine S-oxygenation by catalase in cancers and neurodegenerative diseases” (Nature Communications, 2016)

Molecular target: T1, Bovine liver catalase (Bos taurus, UniProt P00432)
T1 construct: Bovine liver catalase was also purchased from Sigma-Aldrich; purchased Sigma-Aldrich; host or cells: bovine liver
T1 sequence (P00432 2-527 limits assumed): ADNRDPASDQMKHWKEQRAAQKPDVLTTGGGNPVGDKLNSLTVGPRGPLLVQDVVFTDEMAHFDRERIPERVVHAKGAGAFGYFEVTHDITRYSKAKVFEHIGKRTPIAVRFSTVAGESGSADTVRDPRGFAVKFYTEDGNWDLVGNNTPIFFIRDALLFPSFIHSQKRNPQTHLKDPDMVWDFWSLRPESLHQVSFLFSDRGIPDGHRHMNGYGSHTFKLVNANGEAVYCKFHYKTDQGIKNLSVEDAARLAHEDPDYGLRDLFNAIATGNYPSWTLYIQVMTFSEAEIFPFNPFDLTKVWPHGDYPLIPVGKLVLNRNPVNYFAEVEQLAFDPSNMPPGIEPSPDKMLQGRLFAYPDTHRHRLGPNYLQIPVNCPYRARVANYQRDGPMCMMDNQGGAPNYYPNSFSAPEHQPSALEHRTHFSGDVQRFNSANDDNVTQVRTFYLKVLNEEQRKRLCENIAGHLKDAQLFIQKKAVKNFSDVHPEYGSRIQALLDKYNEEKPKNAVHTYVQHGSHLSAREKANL
Assay: Ultraviolet-visible spectral changes and HPLC-MS of extracted heme after reaction of CAT with thiols
Assay type: biochemical
Description: Ultraviolet–visible spectra were recorded on a Cary 300 Scan or an Uvikon 941 spectrophotometer equipped with a temperature equilibrating water bath (±1 °C). Spectral changes over time were recorded when CAT was incubated with L-HCys (0.2 or 2 mM), L-Cys (0.2, 2 or 9 mM) or GSH (1 or 30 mM) at 25 °C in a 1 ml quartz cuvette containing a solution of CAT (2.7–5.9 μM) in 50 mM KPi, pH 7.4±1 mM DTPA. Due to half-site reactivity of biological thiols with CAT, the data were recorded versus a blank containing half the concentrations of CAT used in the experiments, that is, a solution of 1.35–2.95 μM CAT in 50 mM KPi at pH 7.4±1 mM DTPA. Reactions were initiated by addition of the thiol-containing compounds. Comparative kinetic studies were performed by incubating CAT ([…] in the experiment, 1.35–1.5 μM in the blank) with 2 mM L-HCys in 50 mM KPi, pH 7.4, 1 mM DTPA with or without […], 5,5-dimethyl-1,3-cyclohexanedione (dimedone, 4 mM), BCN (0.1 mM) or SOD, 40 U). All the experiments were performed at least in duplicate.
HPLC–MS or –HRMS spectra of the prosthetic heme-iron group were recorded on a Thermo-Finnigan Surveyor or a Thermos Fisher Accela equipped with an XTerra MS C18 3.5 μm (2.1 × 50 mm) and a pre-guard column coupled to an ESI LCQ Advantage or an Exactive orbitrap spectrometer, respectively. The prosthetic heme group was extracted on ice by incubating a solution of CAT (5–8 μM) with 1.65 volume of 50 mM Gly-HCl pH 2.0 and 2.65 vol of butan-2-one kept a −20 °C. After vigorous mixing and a short centrifugation step (13,000 r.p.m., 4 °C, 30 s), the upper organic phase was quickly removed and mixed with a solution of 2 M imidazole (10% v/v) to stabilize the extracted cofactor and permit analysis. […] Control experiments (CAT, thiol-compounds and additives alone as well CAT and additives or thiol-compounds and additives) were performed in each instance and analysed in parallel.

For `N[C@@H](CS)C(=O)O` [Cys, cysteine], the “heme-iron species formed from CAT” value (physiological concentration of Cys (200 μM) in the presence of iron, no DTPA) was “only leads to the reversible formation of compound II”.

With `N[C@@H](CCC(=O)N[C@@H](CS)C(=O)NCC(=O)O)C(=O)O` [GSH, glutathione] the “heme-iron species formed from CAT” value (GSH (30 mM)) was “compound II formation was only observed”.

For `NC(CCS)C(=O)O` (stereo not drawn) [HCys, homocysteine], the “heme-iron species formed from CAT” value (2 mM HCys, 1 mM DTPA, pH 7.4, 25 °C) was “induces the production of a sulfheme species”.
